The values below come from PubChem BioAssay (NCI).

Several values for one entry are separate records, joined by “and”; a condition that tells them apart may be missing. Equal values may be shown once.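 Cultured in 96-well plates, cells were exposed to test compound for 48 hours across five concentrations. At the GI50, growth is halved. The concentration for full growth arrest is given as TGI.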

Among the test systems are SF-539 CNS; HT29 colon; BT-549 breast; PC-3 prostate; HS 578T breast; HOP-92 NSCLC; CAKI-1 renal; UACC-257 melanoma; SF-295 CNS; SNB-19 CNS.
Common to all, as to experiment: NCI anticancer screen, dose series, 48 h

As for `CC(=O)c1cc(-c2ccccc2N)n(-c2ccc3c(c2)OCO3)c1C`, the GI50 in the assay on SF-539 CNS was 0.181 µM; in the assay with HT29 colon, 0.292 µM; in the assay with BT-549 breast it was 0.575 µM; in the assay with PC-3 prostate it was 0.317 µM; in the assay with HS 578T breast, 0.303 µM; with HOP-92 NSCLC, 0.149 µM. Also, the GI50 was 0.406 µM with CAKI-1 renal, 27.3 µM in the assay on UACC-257 melanoma, 0.295 µM in the assay with SF-295 CNS and 0.299 µM in the assay with SNB-19 CNS. Further, the TGI was 0.487 µM with SF-539 CNS; above 35.6 µM in the assay with HT29 colon; 9.9 µM in the assay with BT-549 breast; above 100 µM in the assay on PC-3 prostate; above 85.4 µM with HS 578T breast; 24.8 µM in the assay with HOP-92 NSCLC. For the same compound, the TGI with CAKI-1 renal is 83.7 µM; in the assay with UACC-257 melanoma, above 100 µM; in the assay on SF-295 CNS it was 45.7 µM; in the assay on SNB-19 CNS, above 100 µM.

Take `C/C(=N\NC(=S)N1CCN(c2ccccn2)CC1)c1nccs1`: the TGI with SF-539 CNS stood at 4.37 µM; with HT29 colon it was 33.7 µM; with BT-549 breast, 18 µM; in the assay with PC-3 prostate, 17.4 µM; with HS 578T breast, 38.3 µM; in the assay with CAKI-1 renal it was 19.9 µM. The TGI worked out at 12.8 µM in the assay on UACC-257 melanoma, 20.7 µM in the assay with SF-295 CNS and 32.8 µM with SNB-19 CNS. The values for the GI50 in the assay on PC-3 prostate and in the assay on HOP-92 NSCLC were 0.525 µM and 0.017 µM, respectively.

As for `Nc1cc2[nH]cnc2c(=O)[nH]1`, the TGI with SF-539 CNS is above 234 µM; with HT29 colon, above 300 µM; in the assay with BT-549 breast, above 300 µM; with PC-3 prostate it was above 300 µM; in the assay with HS 578T breast, above 300 µM; in the assay on HOP-92 NSCLC it was above 300 µM. Also, the TGI with CAKI-1 renal was 135 µM; in the assay on UACC-257 melanoma, above 300 µM; in the assay with SF-295 CNS, above 300 µM; in the assay on SNB-19 CNS, above 300 µM.

As for `CC(C(=O)O)c1ccc(-c2ccccc2)c(F)c1` (configuration not stated), the TGI in the assay on SF-539 CNS, in the assay on HT29 colon, with BT-549 breast, in the assay with PC-3 prostate, in the assay with HS 578T breast and with HOP-92 NSCLC was above 100 µM in each case. The TGI with CAKI-1 renal, in the assay on UACC-257 melanoma, in the assay on SF-295 CNS and in the assay on SNB-19 CNS was above 100 µM in each case. Moreover, in the assay with HOP-92 NSCLC, the GI50 is 47.6 µM.

Take `N=c1ccc2nc3c(cc(N)c4ccccc43)oc-2c1`: the GI50 with SF-539 CNS was 0.293 µM; in the assay with HT29 colon, 0.535 µM; in the assay on BT-549 breast, 0.268 µM; in the assay with PC-3 prostate it was 0.217 µM; in the assay with HS 578T breast, 0.201 µM; in the assay with HOP-92 NSCLC it was 1.18 µM. The GI50 in the assay on CAKI-1 renal is 0.444 µM; in the assay on UACC-257 melanoma, 0.271 µM; in the assay on SF-295 CNS it was 0.199 µM; in the assay with SNB-19 CNS it was 0.242 µM. Moreover, the TGI with SF-539 CNS amounted to 1.05 µM; with HT29 colon, 1.7 µM; with BT-549 breast, 1.27 µM; in the assay on PC-3 prostate it was 1.71 µM; in the assay on HS 578T breast, 0.622 µM; in the assay on HOP-92 NSCLC, 3.6 µM. Also, the TGI was found to be 2.32 µM in the assay with CAKI-1 renal, 0.819 µM with UACC-257 melanoma, 0.599 µM in the assay with SF-295 CNS and 0.795 µM in the assay on SNB-19 CNS.

Turning to `Cc1nn(CNc2ccccc2C(F)(F)F)c(=S)n1/N=C/c1ccc(F)cc1`, the GI50 was above 100 µM with SF-539 CNS; 42.1 µM in the assay on HT29 colon; above 100 µM in the assay on BT-549 breast; 97.9 µM in the assay with PC-3 prostate; 72.3 µM with HS 578T breast; 34.8 µM in the assay on HOP-92 NSCLC. In addition, the GI50 was above 100 µM with CAKI-1 renal, 59.2 µM with UACC-257 melanoma, above 100 µM with SF-295 CNS and 94 µM with SNB-19 CNS. In addition, the TGI with SF-539 CNS, in the assay with HT29 colon, with BT-549 breast, in the assay on PC-3 prostate, in the assay with HS 578T breast and in the assay on HOP-92 NSCLC was above 100 µM throughout. Further, the TGI in the assay with CAKI-1 renal, in the assay on UACC-257 melanoma, in the assay on SF-295 CNS and in the assay on SNB-19 CNS was above 100 µM in each case.

As for `Clc1ccc2ns[s+]c2c1`, the TGI with SF-539 CNS was 37.8 µM; in the assay with HT29 colon, above 100 µM; with BT-549 breast it was above 100 µM; in the assay on PC-3 prostate, above 100 µM; with HS 578T breast it was above 100 µM; with HOP-92 NSCLC, above 100 µM. The TGI in the assay with CAKI-1 renal, in the assay on UACC-257 melanoma, in the assay on SF-295 CNS and in the assay with SNB-19 CNS was above 100 µM in each case.

Take `COc1cc2c(c(OC)c1OC)-c1ccc(O)c(=O)cc1[C@@H](NC(C)=O)CC2`: the GI50 in the assay on SF-539 CNS is 6.08 µM; with HT29 colon, 6.91 µM; with BT-549 breast it was 24 µM; with PC-3 prostate, 15.1 µM; in the assay on HS 578T breast, 14.3 µM; with HOP-92 NSCLC it was 9.92 µM. For the same compound, the GI50 is 4.91 µM in the assay on CAKI-1 renal, 4.34 µM with UACC-257 melanoma, 5.45 µM in the assay on SF-295 CNS and 7.14 µM with SNB-19 CNS. In addition, the TGI in the assay on SF-539 CNS is 45.5 µM and 44 µM; in the assay with HT29 colon, > 100 µM and 89.7 µM; in the assay with BT-549 breast, > 100 µM and 39.4 µM; in the assay with PC-3 prostate it was above 100 µM; in the assay with HS 578T breast, > 100 µM and 71.4 µM; in the assay with HOP-92 NSCLC, > 100 µM and 58.3 µM. Further, the TGI with CAKI-1 renal is > 100 µM and 37.5 µM; with UACC-257 melanoma, 33.3 µM and 77.1 µM; with SF-295 CNS it was > 100 µM and 97.3 µM; with SNB-19 CNS it was above 100 µM.

For `COC(=O)[C@]1(C)CCC[C@@]2(C)[C@@H]3C[C@@H]4[C@H]5C[C@@]3(CC[C@@H]21)C[C@@]45C`, the TGI in the assay on SF-539 CNS was determined as 38.7 µM; in the assay with HT29 colon, 27.6 µM; with BT-549 breast it was 30.2 µM; in the assay with PC-3 prostate, 29.3 µM; in the assay on HS 578T breast it was 47.9 µM; with HOP-92 NSCLC it was 29.4 µM. For the same compound, the TGI with CAKI-1 renal worked out at 30 µM; in the assay on UACC-257 melanoma, 28.8 µM; in the assay on SF-295 CNS, 28.5 µM; with SNB-19 CNS, 26.9 µM.
